Test results as given in EP0231622B1, “Inhibition of the 5-lipoxygenase pathway” (priority 1985, dated 1987).
Marks after values point to notes of the source that are not given here.

Legend:
[1] = tested on: Polymorphonuclear Leukocytes; experiment: Mouse Carrageenan Peritonitis (PMN infiltration); type: in vivo, Balb/c mice; settings: Table 3; 10 mg/kg, p.o.
Excerpt: (§1) In the following Examples where mice were used, they were male Balb/c mice (20-28 g), and where rats were used, they were male Lewis rats (180-210 g). All mice and rats were obtained from Charles River Breeding Laboratories, Kingston, N.Y. Within a single experiment, mice and rats were sex and age matched.
(§2) The compounds of Formula (IA) were used either as the free base or in the appropriate salt form. Levamisole was used as the hydrochloride salt. The compounds were homogenized in 0.5% tragacanth. Compounds were administered by gavage at the indicated dose in a final volume of 10 ml/kg. Nordihydroguaiaretic acid (NDGA) was solubilized in dimethylacetamide and diluted with olive oil for subcutaneous administration.
Mice were pretreated with either the test compound or vehicle one hour before the intraperitoneal injection of a 1.0% carrageenan suspension in saline (0.2 ml/ mouse). Mice were sacrificed by cervical dislocation two hours after injection, and 3.0 ml of phosphate buffered saline, without Ca⁺⁺ or Mg⁺⁺, was injected into the peritoneum. Following massage, a 2.0 ml aliquot of the lavage fluid was removed, and the total cell count determined on a Coulter counter and differential cell count determined by microscopic examination of Giesma-stained slides.

[2] = tested on: Carrageenan-Induced Cellular Infiltration; experiment: Carrageenan-induced air pouch inflammation; type: in vivo, Lewis rats; settings: 5 mg/kg; 3 hours after carrageenan
Excerpt: as §1, §2
(§3) Rats were shaved on the dorsal flank, and then injected subcutaneously one day later with 20 ml of air to form a defined pouch, by the method of Sedgwick et al., J. Pathology, 141, 483-495 (1983). The air pouch was reinflated as necessary over the next 6 days. To assay anti-inflammatory activity, animals were treated orally with test compound or vehicle (10 ml/kg) one hour before injection of 2.0 ml of a 2.0% carrageenan suspension containing 200 units/ml penicillin and 100 »g/ml streptomycin into the air pouch. In other experiments, 5 ml of 0.1% arachidonic acid in 0.2 M bicarbonate buffer was injected two hours after drug treatment. Animals were sacrificed using CO₂ three hours after instillation of irritant. The exudate was then aspirated from the pouch and neutrophil count and differential cell count were measured.

[3] = tested on: Arachidonic Acid-Induced Cellular Infiltration; experiment: Arachidonic acid-induced air pouch inflammation; type: in vivo, Lewis rats; settings: 5 mg/kg; 3 hours after arachidonic acid
Excerpt: as §1, §2, §3

[4] = tested on: Arachidonic Acid-Induced Rat Paw Edema; experiment: Arachidonic acid-induced rat paw swelling; type: in vivo, Lewis rats; settings: 5 mg/kg, read at 2 hours
Excerpt: as §1, §2

[5] = tested on: Arachidonic Acid-Induced Inflammation of the Mouse Ear; experiment: Arachidonic acid-induced mouse ear inflammation; type: in vivo, Balb/c mice; settings: Table 7; 10 mg/kg, p.o.
Excerpt: as §1, §2
Arachidonic acid in acetone (2 mg/20 ul) was applied to the inner surface of the left ear. The thickness of both ears was then measured with a dial micrometer one hour after treatment, and the data were expressed as the change in thickness (10⁻³ cm) between treated and untreated ears.
Test compounds were given orally in 0.5% tragacanth at the times indicated in the text prior to the topical application of arachidonic acid.
Parenteral administration of compound was accomplished by subcutaneous injection of solution as indicated.

5-LO = target: T1, 5-LO (Rattus norvegicus, UniProt P12527); experiment: di-HETE production by RBL-1 high speed supernatant; type: biochemical; settings: concentrations up to 10⁻⁴M; soluble extract of RBL-1 cells
T1 construct: The activities of these enzymes in extracts of RBL-1 cells were assayed; host or cells: RBL-1 cells, disrupted by nitrogen cavitation; 10,000 x g or 100,000 x g supernatant
T1 sequence (P12527 1-673): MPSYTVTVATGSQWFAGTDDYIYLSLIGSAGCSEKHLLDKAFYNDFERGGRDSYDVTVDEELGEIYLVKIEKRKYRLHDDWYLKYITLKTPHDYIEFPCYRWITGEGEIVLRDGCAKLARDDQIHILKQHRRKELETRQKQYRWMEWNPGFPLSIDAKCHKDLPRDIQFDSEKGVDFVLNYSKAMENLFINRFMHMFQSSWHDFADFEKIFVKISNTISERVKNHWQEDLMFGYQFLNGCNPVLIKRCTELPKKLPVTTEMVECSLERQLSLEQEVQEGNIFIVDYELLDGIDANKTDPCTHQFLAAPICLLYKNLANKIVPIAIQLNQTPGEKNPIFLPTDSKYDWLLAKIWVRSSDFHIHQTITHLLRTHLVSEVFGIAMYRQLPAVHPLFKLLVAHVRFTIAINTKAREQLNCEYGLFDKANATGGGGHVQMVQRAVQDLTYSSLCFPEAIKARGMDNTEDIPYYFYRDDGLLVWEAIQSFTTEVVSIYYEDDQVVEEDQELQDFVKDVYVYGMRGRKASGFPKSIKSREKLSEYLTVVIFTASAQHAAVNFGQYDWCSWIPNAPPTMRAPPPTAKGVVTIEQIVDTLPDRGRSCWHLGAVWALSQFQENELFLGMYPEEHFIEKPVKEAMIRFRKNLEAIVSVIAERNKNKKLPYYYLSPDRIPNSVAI
Experimental: For in vitro experiments, compounds were dissolved at appropriate concentrations in ethanol or DMSO (dimethylsulfoxide) (final concentration <1.0%) and then diluted to final concentrations using the buffers indicated in the text.
The activities of these enzymes in extracts of RBL-1 cells were assayed using the method of Jakschik and Lee, Nature, 287, 51-52 (1980). RBL-1 cells were obtained from the American Type Culture Collection (#CRL 1378) and were grown at 37°C (5% CO₂ in air) in spinner culture in MEM supplemented with 10% heat inactivated fetal calf serum. Harvested cells were washed with 50 mM sodium phosphate buffer, pH 7.0, containing 1 mM EDTA and 0.1% gelatin, resuspended in fresh buffer (5 x 10⁷ cells/ml) and disrupted by nitrogen cavitation using the Parr bomb at 750 psi for 10 min. The broken cell extract was then centrifuged at 10,000 x g for 20 minutes and the supernatant centrifuged at 100,000 x g for 60 minutes. Aliquots (0.25 mls) of the supernatant were preincubated with or without drugs for 10 min, after which 10 ul CaCl₂ (50 mM) was added and the reaction was initiated with 2.5 ul of 2.5 mM arachidonic acid-1-¹⁴C (final concentration was […]; specific activity 20,000 dpm/nmole). After incubation for 3 min at 37°C, the reaction was terminated by addition of 2 volumes (0.5 ml) ice cold acetone and the sample was allowed to deproteinize on ice for 10 min prior to centrifugation at 1,000 x g for 10 min. The deproteinized supernatant was adjusted to pH 3.5 with 2N formic acid and extracted with 2 volumes of ice cold ethyl acetate. The extracted samples were dried under argon, redissolved in ethyl acetate and applied to Whatman LK5D thin layer chromatography (TLC) plates which were developed using the A-9 solvent system [organic phase of ethyl acetate: 2,2,5-trimethylpentane:acetic acid: water (110:50:20:10)] described by Hamberg and Samuelsson, J. Biol. Chem., 241, 257-263 (1966). Arachidonic acid, 5-HETE, di-HETE and PGD₂ were quantified with a Berthold LB 2832 autoscanner.
The 5-lipoxygenase and LTA₄ synthetase activities were further studied under the following conditions. An additional centrifugation of the RBL-1 supernatant was run at 100,000 x g for 60 min, to remove the particulate cyclooxygenase activity. Sample incubation was done under conditions similar to those described above, i.e., 2 mM CaCl₂ and 25 uM arachidonic acid-1-¹⁴C, however, with an incubation time of 5 min at […]. Under these conditions, only the 5-lipoxygenase pathway metabolites were detectable. The 5-HETE and di-HETEs were formed at a linear rate, and […] amounts of the arachidonic acid-1-¹⁴C substrate were utilized.

[6] = tested on: Experimental Allergic Encephalomyelitis; experiment: Experimental allergic encephalomyelitis, hindleg paralysis; type: in vivo, Female Lewis rats; settings: p.o. days 0-4, 7-11, 14-18
Experimental: EAE is induced in Female (Charles River) Lewis rats by a single intradermal injection of 0.1 ml of an encephalitogenic emulsion consisting of equial parts of a 50% w/v homogenate of guinea pig spinal cord and mid-brain in 0.5% aqueous phenol and Freund's complete adjuvant (4 mg/ml killed, dried M. butyricum) into a hindpaw (left) footpad. […] Any animal which becomes paralyzed during the course of the experiment is considered to have developed EAE whether or not the paralysis is permanent. Test compounds are administered daily beginning on the day of injection, for 19 days, exclusive of days 5, 6 12 and 13. Drug activity is determined by comparing the indicidence of EAE (paralysis) of the treated group with a control (vehicle) group. The level of significant difference between the treated groups and control groups is determined by a Chi-square test using a 2x2 contingency table. Body weight changes from day 0 are also statistically compared to the control group using a Student "t" test.

Row | Compound | % Change [1] | PMN x 10⁻⁵/ml (mean ± S.D.) [1] [x 10⁻⁵/ml] | Cellular Infiltrate (Total x 10⁻⁶) MN [2] [x 10⁻⁶] | Cellular Infiltrate (Total x 10⁻⁶) PMN [2] | Exudate Volume [2] [mL] | Cellular Infiltrate (Total x 10⁻⁶) MN [3] [x 10⁻⁶] | Cellular Infiltrate (Total x 10⁻⁶) PMN [3] [x 10⁻⁶] | Exudate Volume [3] [mL] | Change in Paw Volume ([4]; one hour before arachidonic acid) [mL] | (% Inhibition) of change in paw volume [4] [%] | Increase in Ear Thickness at 1 Hour (x 10⁻³ cm) [5] [x 10⁻³ cm] | effect on eicosanoid formation (di-HETE production) (5-LO) | HINDLEG PARALYSIS - CUMULATIVE INCIDENCE DAY 9 TO 13 ([6]; 2 Mg/kg/day) | HINDLEG PARALYSIS - CUMULATIVE INCIDENCE DAY 14 TO 18 ([6]; 2 Mg/kg/day) | HINDLEG PARALYSIS - CUMULATIVE INCIDENCE DAY 9 TO 13 ([6]; 0.3 Mg/kg/day) | HINDLEG PARALYSIS - CUMULATIVE INCIDENCE DAY 14 TO 18 ([6]; 0.3 Mg/kg/day)
1 | COc1ccc2c(c1)c(CC(=O)O)c(C)n2C(=O)c1ccc(Cl)cc1 [Indomethacin] | -12^b % | 8.20 ± 2.65 | 4.0 ± 0.8 | 2.8 ± 0.7^d x 10⁻⁶ | 2.0 ± 0.5 | 7.0 ± 6.4 | 5.0 ± 3.8 | 2.5 ± 0.8 | 0.29 ± 0.06 | 0 | 24.4 ± 0.8 | inactive | 6/11 | 10/11 | – | –
2 | CN(Cc1cnc2nc(N)nc(N)c2n1)c1ccc(C(=O)N[C@@H](CCC(=O)O)C(=O)O)cc1 [METHOTREXATE] | – | – | – | – | – | – | – | – | – | – | – | – | – | – | 0/11** | 0/11**
